Measured values published in PMC11845477, “Exploring the principles behind antibiotics with limited resistance” (Nature Communications, 2025).

System: A. baumannii ATCC 17978 (SEN) and A. baumannii ATCC BAA-1605 (MDR)
Experiment: Adaptive laboratory evolution (ALE), relative MIC of evolved lines
Assay type: cell-based, Acinetobacter baumannii
Description: Using the same set of bacterial strains, we initiated adaptive laboratory evolution with the aim to maximize the level of antibiotic resistance in the populations achieved during a longer, but fixed time period.
An established protocol for adaptive laboratory evolution[46],[73] was followed to propagate populations with the highest resistance levels. Starting with an antibiotic concentration that caused approximately 50% growth inhibition, ten parallel populations for each antibiotic-ancestor strain combination were grown for 72 hours at 37 °C with continuous shaking (300 RPM). MHB broth medium was used unless stated otherwise. After each incubation, 20 µl of each culture was transferred to four new wells containing fresh medium with increasing antibiotic concentrations (0.5×, 1×, 1.5×, and 2.5× the previous concentration) in a chessboard layout to monitor potential cross-contamination. Growth was monitored by measuring OD600 using a Biotek Synergy 2 microplate reader, and only populations grown in the highest drug concentration with an OD600 > 0.2 were transferred further.
A robotic liquid handling system was used to automatically prepare a 11 to 16-step serial dilution in 384-well microtiter plates (Greiner). A final concentration of 5 × 10^5 bacterial cells per mL were inoculated into each well containing 60 µL MHB medium. Bacterial cultures were incubated at 37 °C with continuous shaking (Infors shaker, 900 rpm with 3 mm throw) for 18 hours (2 replicates from each). Cell growth was monitored by measuring the optical density (OD600 values, using Biotek Synergy microplate reader). MIC was defined as the antibiotic concentration of complete growth inhibition (i.e., OD600 < 0.05). Relative MIC was calculated as follows:1 relativeMIC=MICevolved/MICancestor […]
Supplementary Figure 4. Resistance levels following adaptive laboratory evolution across bacterial strains. The level of resistance was measured as the fold change in relative MIC between evolved and ancestral strains after ~60 days of adaptive laboratory evolution. Data are grouped by bacterial strain (A. baumannii (AB), E. coli (EC), K. pneumoniae (KP), and P. aeruginosa (PA)) and categorized as either multidrug-resistant (MDR) or sensitive (SEN). Each data point represents a laboratory evolved line, and boxplots show the median, first and third quartiles, with whiskers indicating the 5th and 95th percentiles.
Statistical analysis was performed using two-sided Dunn’s post-hoc test with Benjamini-Hochberg correction for multiple comparisons (****/ ***/ **/ * indicates p < 0.0001/ 0.001/ 0.01/ 0.05). For detailed information on antibiotic and bacterial species, see Supplementary Table 1. For mode of action groups, refer to Table 1. Source data are provided as a Source Data file.

[1] = AB-SEN (ATCC 17978), evolved line 1, MIC of evolved line / MIC of ancestor
[2] = AB-SEN (ATCC 17978), evolved line 2, MIC of evolved line / MIC of ancestor
[3] = AB-SEN (ATCC 17978), evolved line 3, MIC of evolved line / MIC of ancestor
[4] = AB-SEN (ATCC 17978), evolved line 4, MIC of evolved line / MIC of ancestor
[5] = AB-SEN (ATCC 17978), evolved line 5, MIC of evolved line / MIC of ancestor
[6] = AB-SEN (ATCC 17978), evolved line 6, MIC of evolved line / MIC of ancestor
[7] = AB-SEN (ATCC 17978), evolved line 7, MIC of evolved line / MIC of ancestor
[8] = AB-SEN (ATCC 17978), evolved line 8, MIC of evolved line / MIC of ancestor
[9] = AB-SEN (ATCC 17978), evolved line 9, MIC of evolved line / MIC of ancestor
[10] = AB-SEN (ATCC 17978), evolved line 10, MIC of evolved line / MIC of ancestor
[11] = AB-SEN (Acinetobacter baumannii ATCC 17978), evolved line 2 adapted to the named antibiotic
[12] = AB-SEN (Acinetobacter baumannii ATCC 17978), evolved line 6 adapted to the named antibiotic
[13] = AB-SEN (Acinetobacter baumannii ATCC 17978), evolved line 9 adapted to the named antibiotic
[14] = Acinetobacter baumannii ATCC 17978 (AB-SEN), evolved line 1
[15] = Acinetobacter baumannii ATCC 17978 (AB-SEN), evolved line 2
[16] = Acinetobacter baumannii ATCC 17978 (AB-SEN), evolved line 3
[17] = Acinetobacter baumannii ATCC 17978 (AB-SEN), evolved line 4
[18] = Acinetobacter baumannii ATCC 17978 (AB-SEN), evolved line 5
[19] = Acinetobacter baumannii ATCC 17978 (AB-SEN), evolved line 6
[20] = Acinetobacter baumannii ATCC 17978 (AB-SEN), evolved line 7
[21] = Acinetobacter baumannii ATCC 17978 (AB-SEN), evolved line 8
[22] = Acinetobacter baumannii ATCC 17978 (AB-SEN), evolved line 9
[23] = Acinetobacter baumannii ATCC 17978 (AB-SEN), evolved line 10
[24] = AB-SEN (Acinetobacter baumannii ATCC 17978), evolved line 4 adapted to the named antibiotic
[25] = AB-SEN (Acinetobacter baumannii ATCC 17978), evolved line 8 adapted to the named antibiotic

CN[C@@H]1[C@@H](O[C@H]2O[C@H](CO)[C@@H](N)[C@H](O)[C@H]2O)OC2C[C@@H](N)[C@@H](O[C@H]3[C@H](O)[C@@H](O)[C@H](N)C[C@@H]3N)OC2[C@@H]1O (stereo partly shown) [Apramycin]
1.505: Relative MIC (log10) (AB-SEN (Acinetobacter baumannii ATCC 17978), evolved line 3 adapted to the named antibiotic) | Relative MIC (log10) [13] | Relative MIC (log10) (AB-SEN (Acinetobacter baumannii ATCC 17978), evolved line 10 adapted to the named antibiotic)
1.806: Relative MIC (log10) [11]
32: Relative MIC [1] | Relative MIC [3] | Relative MIC [5] | Relative MIC [8] | Relative MIC [9] | Relative MIC [10] | Relative MIC [14] | Relative MIC [16] | Relative MIC [18] | Relative MIC [21] | Relative MIC [22] | Relative MIC [23]
16: Relative MIC [4] | Relative MIC [6] | Relative MIC [17] | Relative MIC [19]
1.204: Relative MIC (log10) [12]
64: Relative MIC [2] | Relative MIC [7] | Relative MIC [15] | Relative MIC [20]

C[C@H]1c2cccc(O)c2C(=O)C2=C(O)[C@]3(O)C(=O)C(C(N)=O)=C(O)[C@@H](N(C)C)[C@@H]3[C@@H](O)[C@@H]21 [Doxycycline]
16: Relative MIC [3] | Relative MIC [6] | Relative MIC [9] | Relative MIC [10] | Relative MIC [16] | Relative MIC [19] | Relative MIC [22] | Relative MIC [23]
64: Relative MIC [2] | Relative MIC [15]
1.806: Relative MIC (log10) [11]
32: Relative MIC [1] | Relative MIC [4] | Relative MIC [5] | Relative MIC [7] | Relative MIC [8] | Relative MIC [14] | Relative MIC [17] | Relative MIC [18] | Relative MIC [20] | Relative MIC [21]
1.505: Relative MIC (log10) [24] | Relative MIC (log10) (AB-SEN (Acinetobacter baumannii ATCC 17978), evolved line 5 adapted to the named antibiotic) | Relative MIC (log10) (AB-SEN (Acinetobacter baumannii ATCC 17978), evolved line 7 adapted to the named antibiotic) | Relative MIC (log10) [25]

CN(C)[C@@H]1C(O)=C(C(N)=O)C(=O)[C@@]2(O)C(O)=C3C(=O)c4c(O)c(NC(=O)CN5CCCC5)cc(F)c4C[C@H]3C[C@@H]12 [Eravacycline]
32: Relative MIC (AB-MDR (ATCC BAA 1605), evolved line 2, MIC of evolved line / MIC of ancestor) | Relative MIC (AB-MDR (ATCC BAA 1605), evolved line 3, MIC of evolved line / MIC of ancestor) | Relative MIC (AB-MDR (ATCC BAA 1605), evolved line 4, MIC of evolved line / MIC of ancestor) | Relative MIC (AB-MDR (ATCC BAA 1605), evolved line 6, MIC of evolved line / MIC of ancestor) | Relative MIC (AB-MDR (ATCC BAA 1605), evolved line 7, MIC of evolved line / MIC of ancestor) | Relative MIC (AB-MDR (ATCC BAA 1605), evolved line 8, MIC of evolved line / MIC of ancestor) | Relative MIC (AB-MDR (ATCC BAA 1605), evolved line 9, MIC of evolved line / MIC of ancestor) | Relative MIC (AB-MDR (ATCC BAA 1605), evolved line 10, MIC of evolved line / MIC of ancestor) | Relative MIC (Acinetobacter baumannii ATCC BAA 1605 (AB-MDR), evolved line 2) | Relative MIC (Acinetobacter baumannii ATCC BAA 1605 (AB-MDR), evolved line 4) | Relative MIC (Acinetobacter baumannii ATCC BAA 1605 (AB-MDR), evolved line 6) | Relative MIC (Acinetobacter baumannii ATCC BAA 1605 (AB-MDR), evolved line 7) | Relative MIC (Acinetobacter baumannii ATCC BAA 1605 (AB-MDR), evolved line 8) | Relative MIC (Acinetobacter baumannii ATCC BAA 1605 (AB-MDR), evolved line 9) | Relative MIC (Acinetobacter baumannii ATCC BAA 1605 (AB-MDR), evolved line 10) | Relative MIC (Acinetobacter baumannii ATCC BAA 1605 (AB-MDR), evolved line 3)
16: Relative MIC (AB-MDR (ATCC BAA 1605), evolved line 1, MIC of evolved line / MIC of ancestor) | Relative MIC (AB-MDR (ATCC BAA 1605), evolved line 5, MIC of evolved line / MIC of ancestor) | Relative MIC (Acinetobacter baumannii ATCC BAA 1605 (AB-MDR), evolved line 5) | Relative MIC (Acinetobacter baumannii ATCC BAA 1605 (AB-MDR), evolved line 1)
1.806: Relative MIC (log10) [25]
128: Relative MIC [2] | Relative MIC [3] | Relative MIC [4] | Relative MIC [5] | Relative MIC [6] | Relative MIC [7] | Relative MIC [9] | Relative MIC [10] | Relative MIC [15] | Relative MIC [16] | Relative MIC [17] | Relative MIC [18] | Relative MIC [19] | Relative MIC [20] | Relative MIC [22] | Relative MIC [23]
64: Relative MIC [1] | Relative MIC [8] | Relative MIC [14] | Relative MIC [21]
2.107: Relative MIC (log10) [11] | Relative MIC (log10) [24] | Relative MIC (log10) [12] | Relative MIC (log10) [13]
1.505: Relative MIC (log10) (AB-MDR (Acinetobacter baumannii ATCC BAA 1605), evolved line 2 adapted to the named antibiotic) | Relative MIC (log10) (AB-MDR (Acinetobacter baumannii ATCC BAA 1605), evolved line 3 adapted to the named antibiotic) | Relative MIC (log10) (AB-MDR (Acinetobacter baumannii ATCC BAA 1605), evolved line 4 adapted to the named antibiotic) | Relative MIC (log10) (AB-MDR (Acinetobacter baumannii ATCC BAA 1605), evolved line 6 adapted to the named antibiotic) | Relative MIC (log10) (AB-MDR (Acinetobacter baumannii ATCC BAA 1605), evolved line 10 adapted to the named antibiotic)
